Source: patent US20210038681A1, “PHARMACEUTICAL COMPOSITION FOR TREATING VIRAL HEPATITIS C” (priority 2018, published 2021)
Read-outs that look alike come from different tables or passages of the source.

How the values were obtained:
[1] = test system: HCV 1a Wild-type replicon; experiment: microbe, parasite or virus in culture; settings: Hepatitis C virus, Huh-7, read-out: Mean EC50 (nM) ± SD
[2] = test system: HCV 1a Wild-type replicon; settings: read-out: Mean EC50 (nM) ± SD; HCV 1a variant Wild-type; Huh7-Lunet cells

CNC(=O)c1c(-c2ccc(F)cc2)oc2cc(N(CCO)S(C)(=O)=O)c(C3CC3)cc12 [HCV-796]
EC50 [1]: 11.8 nM

C[C@@]1(F)[C@H](O)[C@@H](CO)O[C@H]1n1ccc(N)nc1=O [PSI-6130]
EC50 [2]: 770 nM
